Data published in ChEMBL document CHEMBL3886459, “Benzylamine derivatives as inhibitors of plasma kallikrein” (2016).

Columns and labels:
Plasma kallikrein = Plasma kallikrein (Homo sapiens, UniProt P03952); experiment: (§1) In Vitro Inhibition Assay: Plasma kallikrein inhibitory activity in vitro was determined using standard published methods (see e.g. Johansen et al., Int. J. Tiss. Reac. 1986, 8, 185; Shori et al., Biochem. Pharmacol., 1992, 43, 1209; Stiirzebecher et al., Biol. Chem. Hoppe-Seyler, 1992, 373, 1025). Human plasma kallikrein (Protogen) was incubated at 37° C. with the fluorogenic substrate H-DPro-Phe-Arg-AFC and various concentrations of the test compound. Residual enzyme activity (initial rate of reaction) was determined by measuring the change in […] at 410 nm and the IC50 value for the test compound was determined.; type: cell-free
Kallikrein-1 = Kallikrein-1 (Homo sapiens, UniProt P06870); experiment: as §1, with “KLK1” for “Plasma kallikrein”, “Stürzebecher” for “Stiirzebecher”, “KLK1 (Callbiochem)” for “plasma kallikrein (Protogen)”, “H-DVal-Leu-Arg-AFC” for “H-DPro-Phe-Arg-AFC”
Coagulation factor XII = target: T1, Coagulation factor XII (Homo sapiens, UniProt P00748); experiment: Enzyme Assay: Human serine protease enzymes plasmin, thrombin, trypsin, Factor Xa and Factor XIIa were assayed for enzymatic activity using an appropriate fluorogenic substrate. Protease activity was measured by monitoring the accumulation of liberated fluorescence from the substrate over 5 minutes. The linear rate of fluorescence increase per minute was expressed as percentage (%) activity. The …
T1 sequence (P00748 whole entry): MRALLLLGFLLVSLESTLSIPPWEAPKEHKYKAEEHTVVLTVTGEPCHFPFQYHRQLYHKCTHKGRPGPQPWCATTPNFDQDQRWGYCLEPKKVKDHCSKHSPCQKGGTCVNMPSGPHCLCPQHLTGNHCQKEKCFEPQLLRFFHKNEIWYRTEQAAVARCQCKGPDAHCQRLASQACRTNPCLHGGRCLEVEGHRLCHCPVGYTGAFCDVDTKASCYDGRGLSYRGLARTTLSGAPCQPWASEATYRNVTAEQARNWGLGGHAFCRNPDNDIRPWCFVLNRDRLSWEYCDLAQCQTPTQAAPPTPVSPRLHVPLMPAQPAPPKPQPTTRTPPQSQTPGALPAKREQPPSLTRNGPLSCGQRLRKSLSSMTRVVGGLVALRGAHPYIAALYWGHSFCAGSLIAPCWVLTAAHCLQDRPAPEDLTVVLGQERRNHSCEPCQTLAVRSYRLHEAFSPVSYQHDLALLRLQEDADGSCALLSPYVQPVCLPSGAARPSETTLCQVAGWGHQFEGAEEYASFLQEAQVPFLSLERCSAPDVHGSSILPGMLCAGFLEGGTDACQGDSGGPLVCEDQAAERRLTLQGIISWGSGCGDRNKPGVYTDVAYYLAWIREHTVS
Description: Enzyme Assay: Human serine protease enzymes plasmin, thrombin, trypsin, Factor Xa and Factor XIIa were assayed for enzymatic activity using an appropriate fluorogenic substrate. Protease activity was measured by monitoring the accumulation of liberated fluorescence from the substrate over 5 minutes. The linear rate of fluorescence increase per minute was expressed as percentage (%) activity. The Km for the cleavage of each substrate was determined by standard transformation of the Michaelis-Menten equation.

Sequence of Kallikrein-1 (P06870 whole entry): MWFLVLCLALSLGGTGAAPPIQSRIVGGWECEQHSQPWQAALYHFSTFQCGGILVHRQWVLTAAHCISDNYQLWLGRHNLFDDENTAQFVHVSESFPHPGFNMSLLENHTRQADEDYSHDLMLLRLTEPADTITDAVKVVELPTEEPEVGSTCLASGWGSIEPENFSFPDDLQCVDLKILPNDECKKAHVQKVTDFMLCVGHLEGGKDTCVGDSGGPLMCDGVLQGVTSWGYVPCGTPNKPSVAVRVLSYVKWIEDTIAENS
Sequence of Plasma kallikrein (P03952 20-390 limits assumed): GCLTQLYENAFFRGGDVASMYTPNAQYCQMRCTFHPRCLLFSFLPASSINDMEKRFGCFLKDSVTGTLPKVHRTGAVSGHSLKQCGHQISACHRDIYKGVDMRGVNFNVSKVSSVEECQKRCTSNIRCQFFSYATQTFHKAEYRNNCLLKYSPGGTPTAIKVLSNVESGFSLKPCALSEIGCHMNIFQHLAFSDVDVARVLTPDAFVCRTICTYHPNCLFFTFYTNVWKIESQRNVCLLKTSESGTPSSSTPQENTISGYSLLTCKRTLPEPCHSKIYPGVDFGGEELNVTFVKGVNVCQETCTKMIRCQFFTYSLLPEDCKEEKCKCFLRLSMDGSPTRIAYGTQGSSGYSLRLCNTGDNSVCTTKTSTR
Sequence of Plasma kallikrein (P03952 391-638 limits assumed): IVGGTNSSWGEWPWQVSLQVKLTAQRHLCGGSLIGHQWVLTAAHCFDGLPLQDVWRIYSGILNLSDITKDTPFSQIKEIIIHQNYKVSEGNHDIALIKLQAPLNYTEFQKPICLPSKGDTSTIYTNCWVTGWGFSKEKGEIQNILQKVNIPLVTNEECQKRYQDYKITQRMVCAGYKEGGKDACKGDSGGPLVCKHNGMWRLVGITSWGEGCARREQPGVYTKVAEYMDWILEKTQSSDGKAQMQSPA

IC50 (Plasma kallikrein) [nM] | IC50 (Kallikrein-1) [nM] | IC50 (Coagulation factor XII) [nM] | Structure (SMILES)
740 | > 1000 | – | NCc1ccc(CNC(=O)[C@H](Cc2ccccc2)NC(=O)[C@H](N)CC2CCCCC2)cc1
32 | > 10000 | > 10000 | CCOc1ccc(C[C@@H](NC(=O)c2ccc(C)cc2)C(=O)N[C@@H](Cc2ccccc2)C(=O)NCc2ccc(CN)cc2)cc1
40 | 9500 | – | CCCOc1ccc(C[C@@H](NC(=O)c2ccccc2)C(=O)N[C@@H](Cc2ccccc2)C(=O)NCc2ccc(CN)cc2)cc1
1210 | > 10000 | – | NCc1ccc(CNC(=O)[C@H](Cc2ccccc2)NC(=O)[C@@H](Cc2ccc(OCc3ccccc3)cc2)NC(=O)c2ccccc2)cc1
28 | > 10000 | – | CCOc1ccc(C[C@@H](NC(=O)c2ccccc2)C(=O)N[C@@H](Cc2c[nH]c3ccccc23)C(=O)NCc2ccc(CN)cc2)cc1
46 | > 10000 | > 10000 | CCOc1ccc(C[C@@H](NC(=O)c2ccc(OC)cc2)C(=O)N[C@@H](Cc2ccccc2)C(=O)NCc2ccc(CN)cc2)cc1
